Data taken from patent publication US20250154134A1, “COMPOUND AS FAK INHIBITOR AND USE THEREOF” (WIGEN BIOMEDICINE TECHNOLOGY (SHANGHAI) CO., LTD., priority 2022, published 2025).

What was measured:
FAK recombinant protein = FAK recombinant protein (Homo sapiens (Human), UniProt Q05397); test: Inhibitory activity against FAK enzyme (HTRF, TK substrate); assay type: biochemical
Method: A compound serially diluted with DMSO was mixed with a FAK recombinant protein. After the mixture was left to stand at room temperature for 10 min, a biotin-labeled TK substrate (TK) and ATP were added. […] The inhibition percentage and IC50 of the compound were calculated compared to the DMSO control group.

PC3 cells [1] = test: PC3 cell proliferation, 2D activity assay (Cell Titer-Lumi, 72 h); assay type: cell-based, human
PC3 cells [2] = test: PC3 cell proliferation, 3D activity assay (3D culture, 14 days); assay type: cell-based, human; settings: read-out: 3D inhibitory activity against PC3 cells IC50
[3] = Homo sapiens, PC-3, read-out: 2D inhibitory activity against PC3 cells IC50

Sequence of FAK recombinant protein (Q05397 whole entry): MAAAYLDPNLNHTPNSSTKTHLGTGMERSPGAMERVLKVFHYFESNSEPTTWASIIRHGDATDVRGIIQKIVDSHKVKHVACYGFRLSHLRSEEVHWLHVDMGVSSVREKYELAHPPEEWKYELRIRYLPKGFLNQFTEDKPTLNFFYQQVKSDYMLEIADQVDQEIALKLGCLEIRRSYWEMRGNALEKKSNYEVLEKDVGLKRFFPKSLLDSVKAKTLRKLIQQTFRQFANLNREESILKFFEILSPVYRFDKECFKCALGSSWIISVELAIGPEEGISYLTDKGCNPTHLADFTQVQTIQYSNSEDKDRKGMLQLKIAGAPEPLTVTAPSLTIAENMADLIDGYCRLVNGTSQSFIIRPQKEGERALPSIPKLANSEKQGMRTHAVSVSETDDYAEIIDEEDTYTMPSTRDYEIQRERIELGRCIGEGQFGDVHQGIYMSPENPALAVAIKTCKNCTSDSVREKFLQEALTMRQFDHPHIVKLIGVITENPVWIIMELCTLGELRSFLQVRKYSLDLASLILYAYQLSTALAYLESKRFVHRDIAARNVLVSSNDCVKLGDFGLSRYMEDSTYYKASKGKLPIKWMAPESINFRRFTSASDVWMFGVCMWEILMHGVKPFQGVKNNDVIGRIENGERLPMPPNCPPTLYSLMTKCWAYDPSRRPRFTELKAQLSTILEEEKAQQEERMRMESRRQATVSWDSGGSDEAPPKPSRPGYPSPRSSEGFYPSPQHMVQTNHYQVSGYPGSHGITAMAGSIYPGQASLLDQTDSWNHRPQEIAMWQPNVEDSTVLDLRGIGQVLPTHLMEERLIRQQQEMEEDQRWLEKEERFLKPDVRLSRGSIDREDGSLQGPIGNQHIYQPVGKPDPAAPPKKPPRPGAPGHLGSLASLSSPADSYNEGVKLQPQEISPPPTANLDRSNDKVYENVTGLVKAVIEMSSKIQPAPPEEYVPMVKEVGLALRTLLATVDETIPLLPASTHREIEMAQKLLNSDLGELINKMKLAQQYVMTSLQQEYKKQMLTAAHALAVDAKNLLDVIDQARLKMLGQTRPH

CN1C(=O)c2c(Oc3nc(Nc4ccc5c(c4)CNC5=O)ncc3C(F)(F)F)cccc2C12CC2 [Compound 70]
IC50 (FAK recombinant protein): < 20 nM
IC50 (PC3 cells [1]; [3]): > 2000 nM
IC50 (PC3 cells [2]; Homo sapiens, PC-3, 336 h): > 50 nM

COc1cc(N2CC(N3C4CCC3CN(C)C4)C2)ccc1Nc1ncc(Cl)c(Oc2cccc3c2C(=O)N(C)C32CC2)n1 [Compound 161]
IC50 (FAK recombinant protein): < 20 nM
IC50 (PC3 cells [1]; [3]): > 2000 nM
IC50 (PC3 cells [2]; Homo sapiens, PC-3, 336 h): < 5 nM

COc1cc(N2CCC3CN(C)CC32)ccc1Nc1ncc(Cl)c(Oc2cccc3c2C(=O)N(C)C32CC2)n1 (stereo not drawn) [Compound 172]
IC50 (FAK recombinant protein): < 20 nM
IC50 (PC3 cells [1]; [3]): > 2000 nM
IC50 (PC3 cells [2]; Homo sapiens, PC-3, 336 h): 5 to 50 nM

COc1cc(N2CCOCC2)ccc1Nc1ncc(C(F)(F)F)c(Cc2cccc3c2C(=O)N(C)C32CC2)n1 [Compound 112]
IC50 (FAK recombinant protein): < 20 nM
IC50 (PC3 cells [1]; [3]): > 2000 nM
IC50 (PC3 cells [2]; Homo sapiens, PC-3, 336 h): 5 to 50 nM

COc1cc(N2C3CCC2CN(C)C3)ccc1Nc1ncc(Cl)c(Oc2cccc3c2C(=O)N(C)C32CC2)n1 [Compound 166]
IC50 (FAK recombinant protein): < 20 nM
IC50 (PC3 cells [1]; [3]): > 2000 nM
IC50 (PC3 cells [2]; Homo sapiens, PC-3, 336 h): 5 to 50 nM

COc1cc(C(=O)NC2CCC3(CC2)CN(C)C3)ccc1Nc1ncc(C(F)(F)F)c(Oc2cccc3c2C(=O)N(C)C32CC2)n1 [Compound 11]
IC50 (FAK recombinant protein): < 20 nM
IC50 (PC3 cells [1]; [3]): > 2000 nM
IC50 (PC3 cells [2]; Homo sapiens, PC-3, 336 h): 5 to 50 nM

COc1cc(C(=O)NC2CCN(C)CC2)ccc1Nc1ncc(C)c(Oc2cccc3c2C(=O)N(C)C32CC2)n1 [Compound 115]
IC50 (FAK recombinant protein): < 20 nM
IC50 (PC3 cells [1]; [3]): > 2000 nM
IC50 (PC3 cells [2]; Homo sapiens, PC-3, 336 h): > 50 nM

COc1cc(N2CC3(CN(C)C3)C2)ccc1Nc1ncc(Br)c(Oc2cccc3c2C(=O)N(C)C32CC2)n1 [Compound 188]
IC50 (FAK recombinant protein): < 20 nM
IC50 (PC3 cells [1]; [3]): > 2000 nM
IC50 (PC3 cells [2]; Homo sapiens, PC-3, 336 h): 5 to 50 nM

COCCN1CCN(c2cc(OC)c(Nc3ncc(C(F)(F)F)c(Oc4cccc5c4C(=O)N(C)C54CC4)n3)cc2F)CC1 [Compound 123]
IC50 (FAK recombinant protein): < 20 nM
IC50 (PC3 cells [1]; [3]): > 2000 nM
IC50 (PC3 cells [2]; Homo sapiens, PC-3, 336 h): < 5 nM

COc1cc(N2CCC3(CC2)CN(C)C3)c(F)cc1Nc1ncc(C(F)(F)F)c(Oc2cccc3c2C(=O)N(C)C32CC2)n1 [Compound 126]
IC50 (FAK recombinant protein): < 20 nM
IC50 (PC3 cells [1]; [3]): > 2000 nM
IC50 (PC3 cells [2]; Homo sapiens, PC-3, 336 h): < 5 nM

COc1cc(C(=O)NC2CC3(CCN(C)CC3)C2)ccc1Nc1ncc(Br)c(Oc2cccc3c2C(=O)N(C)C32CC2)n1 [Compound 176]
IC50 (FAK recombinant protein): < 20 nM
IC50 (PC3 cells [1]; [3]): > 2000 nM
IC50 (PC3 cells [2]; Homo sapiens, PC-3, 336 h): < 5 nM

CCN1CCC2(CC1)CC(NC(=O)c1cc(OC)c(Nc3ncc(C(F)(F)F)c(Oc4cccc5c4C(=O)N(C)C54CC4)n3)cc1F)C2 [Compound 48]
IC50 (FAK recombinant protein): < 20 nM
IC50 (PC3 cells [1]; [3]): > 2000 nM
IC50 (PC3 cells [2]; Homo sapiens, PC-3, 336 h): 5 to 50 nM

COc1cc(C(=O)NC2CCN(C)CC2)c(-c2cnn(C)c2)cc1Nc1ncc(C(F)(F)F)c(Oc2cccc3c2C(=O)N(C)C32CC2)n1 [Compound 54]
IC50 (FAK recombinant protein): < 20 nM
IC50 (PC3 cells [1]; [3]): > 2000 nM
IC50 (PC3 cells [2]; Homo sapiens, PC-3, 336 h): < 5 nM

COc1cc(C(=O)NC2CCC23CCN(C)CC3)ccc1Nc1ncc(C(F)(F)F)c(Oc2cccc3c2C(=O)N(C)C32CC2)n1 (stereo not drawn) [Compound 13]
IC50 (FAK recombinant protein): < 20 nM
IC50 (PC3 cells [1]; [3]): > 2000 nM
IC50 (PC3 cells [2]; Homo sapiens, PC-3, 336 h): < 5 nM

COc1cc(CNC2CCN(C)CC2)ccc1Nc1ncc(Cl)c(Oc2cccc3c2C(=O)N(C)C32CC2)n1 [Compound 155]
IC50 (FAK recombinant protein): < 20 nM
IC50 (PC3 cells [1]; [3]): > 2000 nM
IC50 (PC3 cells [2]; Homo sapiens, PC-3, 336 h): 5 to 50 nM

COc1cc(N2CCN(C)CC2=O)ccc1Nc1ncc(C(F)(F)F)c(Oc2cccc3c2C(=O)N(C)C32CC2)n1 [Compound 83]
IC50 (FAK recombinant protein): < 20 nM
IC50 (PC3 cells [1]; [3]): > 2000 nM
IC50 (PC3 cells [2]; Homo sapiens, PC-3, 336 h): > 50 nM

CN1CCC(NC(=O)c2ccc(Nc3ncc(C(F)(F)F)c(Oc4cccc5c4C(=O)N(C)C54CC4)n3)c(OC(F)(F)F)c2)CC1 [Compound 53]
IC50 (FAK recombinant protein): < 20 nM
IC50 (PC3 cells [1]; [3]): > 2000 nM
IC50 (PC3 cells [2]; Homo sapiens, PC-3, 336 h): 5 to 50 nM

COCCN1CCN(c2cc(OC)c(Nc3ncc(Cl)c(Oc4cccc5c4C(=O)N(C)C54CC4)n3)cc2F)CC1 [Compound 143]
IC50 (FAK recombinant protein): < 20 nM
IC50 (PC3 cells [1]; [3]): > 2000 nM
IC50 (PC3 cells [2]; Homo sapiens, PC-3, 336 h): < 5 nM

COc1cc(N2CCC3(CC2)CN(C)C3)c(F)cc1Nc1ncc(Cl)c(Oc2cccc3c2C(=O)N(C)C32CC2)n1 [Compound 148]
IC50 (FAK recombinant protein): < 20 nM
IC50 (PC3 cells [1]; [3]): > 2000 nM
IC50 (PC3 cells [2]; Homo sapiens, PC-3, 336 h): < 5 nM

COc1cc(C2CCN(C)CC2)ccc1Nc1ncc(C(F)(F)F)c(Oc2cccc3c2C(=O)N(C)C32CC2)n1 [Compound 84]
IC50 (FAK recombinant protein): < 20 nM
IC50 (PC3 cells [1]; [3]): > 2000 nM
IC50 (PC3 cells [2]; Homo sapiens, PC-3, 336 h): < 5 nM

COc1cc(C(=O)N2CCC3(CCCN(C)C3)C2)ccc1Nc1ncc(C(F)(F)F)c(Oc2cccc3c2C(=O)N(C)C32CC2)n1 (stereo not drawn) [Compound 61]
IC50 (FAK recombinant protein): < 20 nM
IC50 (PC3 cells [1]; [3]): > 2000 nM
IC50 (PC3 cells [2]; Homo sapiens, PC-3, 336 h): 5 to 50 nM

CN1CCN(c2ccc(Nc3ncc(C(F)(F)F)c(Oc4cccc5c4C(=O)N(C)C54CC4)n3)nc2)CC1 [Compound 85]
IC50 (FAK recombinant protein): < 20 nM
IC50 (PC3 cells [1]; [3]): > 2000 nM
IC50 (PC3 cells [2]; Homo sapiens, PC-3, 336 h): 5 to 50 nM

COc1cc(N2CCC(N3CCN(C)CC3)CC2)c(F)cc1Nc1ncc(Br)c(Oc2cccc3c2C(=O)N(C)C32CC2)n1 [Compound 181]
IC50 (FAK recombinant protein): < 20 nM
IC50 (PC3 cells [1]; [3]): > 2000 nM
IC50 (PC3 cells [2]; Homo sapiens, PC-3, 336 h): < 5 nM

COc1cc(N2CC3CCN(C)C3C2)ccc1Nc1ncc(Cl)c(Oc2cccc3c2C(=O)N(C)C32CC2)n1 (stereo not drawn) [Compound 170]
IC50 (FAK recombinant protein): < 20 nM
IC50 (PC3 cells [1]; [3]): > 2000 nM
IC50 (PC3 cells [2]; Homo sapiens, PC-3, 336 h): 5 to 50 nM

CN1C(=O)c2c(Oc3nc(Nc4cc5n(n4)CCOC5)ncc3C(F)(F)F)cccc2C12CC2 [Compound 94]
IC50 (FAK recombinant protein): < 20 nM
IC50 (PC3 cells [1]; [3]): > 2000 nM
IC50 (PC3 cells [2]; Homo sapiens, PC-3, 336 h): < 5 nM

COc1cc(N2CC3(CCN(C)CC3)C2)ccc1Nc1ncc(Cl)c(Oc2cccc3c2C(=O)N(C)C32CCC2)n1 [Compound 203, 94′-((5-chloro-2-((2-methoxy-4-(7-methyl-2,7-diazaspiro[3.5]nonan-2-yl)phenyl)amino)pyrimidin-4-yl)oxy)-2′-methylspiro[cyclobutane-1,1′-isoindolin]-3′-one]
IC50 (FAK recombinant protein): < 20 nM
IC50 (PC3 cells [1]; read-out: 2D inhibitory activity against PC3 cells IC50): > 2000 nM
IC50 (PC3 cells [2]): < 5 nM

COc1cc(N2CC3(CN(C)C3)C2)c(F)cc1Nc1ncc(Cl)c(Oc2cccc3c2C(=O)N(C)C32CC2)n1 [Compound 145]
IC50 (FAK recombinant protein): < 20 nM
IC50 (PC3 cells [1]; [3]): > 2000 nM
IC50 (PC3 cells [2]; Homo sapiens, PC-3, 336 h): 5 to 50 nM

COc1cc(C(=O)NC2CC3(CCN(C)CC3)C2)c(F)cc1Nc1ncc(C(F)(F)F)c(Cc2cccc3c2C(=O)N(C)C32CC2)n1 [Compound 102]
IC50 (FAK recombinant protein): < 20 nM
IC50 (PC3 cells [1]; [3]): > 2000 nM
IC50 (PC3 cells [2]; Homo sapiens, PC-3, 336 h): 5 to 50 nM

COc1cc(N2CC3(CCN(C)CC3)C2)c(F)cc1Nc1ncc(Cl)c(Oc2cccc3c2C(=O)N(C)C32CCOCC2)n1 [Compound 214]
IC50 (FAK recombinant protein): < 20 nM
IC50 (PC3 cells [1]; [3]): > 2000 nM
IC50 (PC3 cells [2]; Homo sapiens, PC-3, 336 h): > 50 nM

COc1cc(C2CCN(C)CC2)c(F)cc1Nc1ncc(Br)c(Oc2cccc3c2C(=O)N(C)C32CC2)n1 [Compound 180]
IC50 (FAK recombinant protein): < 20 nM
IC50 (PC3 cells [1]; [3]): > 2000 nM
IC50 (PC3 cells [2]; Homo sapiens, PC-3, 336 h): 5 to 50 nM

CCc1cc(C(=O)NC2CCN(C)CC2)ccc1Nc1ncc(C(F)(F)F)c(Oc2cccc3c2C(=O)N(C)C32CC2)n1 [Compound 50]
IC50 (FAK recombinant protein): < 20 nM
IC50 (PC3 cells [1]; [3]): > 2000 nM
IC50 (PC3 cells [2]; Homo sapiens, PC-3, 336 h): 5 to 50 nM

COCCN1CCN(c2ccc(Nc3ncc(Cl)c(Oc4cccc5c4C(=O)N(C)C54CC4)n3)c(OC)c2)CC1 [Compound 142]
IC50 (FAK recombinant protein): < 20 nM
IC50 (PC3 cells [1]; [3]): > 2000 nM
IC50 (PC3 cells [2]; Homo sapiens, PC-3, 336 h): < 5 nM

COc1cc(C(=O)NC2CCC23CCN(C)CC3)ccc1Nc1ncc(C(F)(F)F)c(Cc2cccc3c2C(=O)N(C)C32CC2)n1 (stereo not drawn) [Compound 108]
IC50 (FAK recombinant protein): < 20 nM
IC50 (PC3 cells [1]; [3]): > 2000 nM
IC50 (PC3 cells [2]; Homo sapiens, PC-3, 336 h): 5 to 50 nM

COc1cc(N2CCC3(CC2)CN(C)C3)ccc1Nc1ncc(Cl)c(Oc2cccc3c2C(=O)N(C)C32CC2)n1 [Compound 149]
IC50 (FAK recombinant protein): < 20 nM
IC50 (PC3 cells [1]; [3]): > 2000 nM
IC50 (PC3 cells [2]; Homo sapiens, PC-3, 336 h): < 5 nM

COc1cc(N2CCN(C)CC2)ccc1Nc1ncc(C2CC2)c(Oc2cccc3c2C(=O)N(C)C32CC2)n1 [Compound 130, 4′-((5-cyclopropyl-2-((2-methoxy-4-(4-methylpiperazin-1-yl)phenyl)amino)pyrimidin-4-yl)oxy)-2′-methylspiro[cyclopropane-1,1′-isoindolin]-3′-one]
IC50 (FAK recombinant protein): < 20 nM
IC50 (PC3 cells [1]; [3]): > 2000 nM
IC50 (PC3 cells [2]; Homo sapiens, PC-3, 336 h): 5 to 50 nM

COc1cc(C2CCN(C)CC2)c(F)cc1Nc1ncc(C(F)(F)F)c(Oc2cccc3c2C(=O)N(C)C32CC2)n1 [Compound 119, 4′-((2-((5-fluoro-2-methoxy-4-(1-methylpiperidin-4-yl)phenyl)amino)-5-(trifluoromethyl)pyrimidin-4-yl)oxy)-2′-methylspiro[cyclopropane-1,1′-isoindolin]-3′-one]
IC50 (FAK recombinant protein): < 20 nM
IC50 (PC3 cells [1]; [3]): > 2000 nM
IC50 (PC3 cells [2]; Homo sapiens, PC-3, 336 h): < 5 nM
